# Source: patent US12447135B2 (University of South Florida, priority 2021, dated 2025)
# What was measured:
# FFAR2 signaling = assay: cAMP-Glo assay, forskolin-induced cAMP in SK-N-SH cells; type: cell-based, human; conditions: 10 μM compound, 10 μM forskolin
# Experimental: FFAR2 is a Gi/o signaling receptor, which reduces cytosolic cAMP (Falomir-Lockhart et al., 2019). To determine the FFAR2 signaling activating potential of selected compounds, the cAMP-Glo™ Assay was used to measure intracellular cAMP. SK-N-SH cells (1×10^3 cells per well) were plated in a white 96-well plate for 24 h and then treated with 10 μM compounds and 10 μM forskolin (a positive control) dissolved in induction buffer. The cAMP levels were detected using a Luminescence Microplate Reader.
# SK-N-SH cells [1] = assay: Aβ-induced neurotoxicity, MTT viability assay; type: cell-based, human
# Experimental: To determine the impact of FFAR2 inhibition on Aβ-induced neuronal cell toxicity, the MTT viability assay was performed (Ronicke et al., 2008). SK-N-SH cells (1×10^3 cells per well) were plated in a 96-well plate containing DMEM medium supplemented with 10% FBS and 1% antibiotics and grown at 37° C. for 24 h. Then, media was removed, and cells were washed with PBS before being replenished with DMEM media containing 1% FBS and 10 μM FFAR2 inhibitor (CATPB, Tocris) and incubated at 37° C. for 2 h. Then, cells were treated with Aβ 25-32 peptide (25 μM, Sigma) and incubated for 4 h. Afterward, the media was replaced with 100 μl of fresh media, and 10 μl of MTT reagent (5 mg/ml in phosphate buffer [pH 7.2]) was added and mixed in each well before an additional 4 h incubation. Then, DMSO (50 μl) was added in each well and mixed thoroughly to dissolve formazan crystals. The absorbance was measured at 570 nm.
# SK-N-SH cells [2] = assay: Aβ accumulation in SK-N-SH cells (western blot); type: cell-based, human; conditions: vs Aβ-only treated controls, FFAR2 dependent
# Experimental: (§1) To determine the FFAR2 signal activating property of selected compounds, SK-N-SH cells were treated with 10 μM of shortlisted compounds for 30 min at 37° C. and harvested for total protein extraction. Cells were harvested after 30 min of incubation because ERK1/2 phosphorylation upon FFAR2 activation is a quick event (Jiao et al., 2002; Bhattacharjee et al., 2010). Total protein from the cells was extracted using a lysis buffer [consisting of 10 mmol/L Tris (pH 7.6), 150 mmol/L NaCl, 10 mmol/L Sodium orthovanadate, 10 mmol/L Sodium Pyrophosphate, 100 mmol/L Sodium fluoride, 1 mmol/L EDTA, 1 mmol/L EGTA, 1% Triton X-100, 0.5% NP-40 and a cocktail of protease inhibitors (Roche); Yadav et al., 2011, 2017; Ahmadi et al., 2019, 2020a]. After sonication, cell extracts were centrifuged at 8,000×g for 10 min at 4° C., and the supernatant was separated in a fresh tube. The total protein concentration of the supernatant was measured using a BCA protein assay kit. […] Band densities were also quantified using NIH ImageJ software. β-actin was used as an internal control.
# C. elegans = assay: Lifespan assay in C. elegans; type: in vivo; conditions: 10 μM
# Experimental: C. elegans was used as a model for determining the impact of selected compounds on aging and AD-like phenotypes. The wild-type (N2) and CL2122 (dvls15 [9pPD30.38) unc-54(vector)+(pCL26)mtl-2::GFP]) were propagated at 20° C. AD transgenic worms model CL2006 (dvls [pCL12(unc-54/human abeta peptide 1-42 minigene)+pRF4), CL4176 (dvls27[myo-3p::A-Beta (1-42)::let-851 3tUTR)+rol-6 (su1006] and CL2355 (dvls 50 [pCL45 9snb-1::Abeta 1-42::3t UTR 9 log)+mtl-2::GFP]) were maintained at 16° C. All strains were cultured on solid nematode growth medium (NGM) consisting of 3 g/L NaCl, 2.5 g/L peptone, 5 mg/L cholesterol, 1 mM CaCl2), 1 mM MgSO4, 25 mM KH2PO4, and 17 g/L agar and seeded with OP50 (Escherichia coli strain) as a food supply. The worms were allowed to grow up to the adult stage, and egg carrying worms were used to isolate age-synchronized eggs using the bleaching method (Porta-de-la-Riva et al., 2012). […] (N2 and CL2122) or 16° C. (CL2006, CL4176, and CL2355). All of the strains used were acquired from the University of Minnesota-Caenorhabditis Genetics Center, which is funded by the NIH Office of Research Infrastructure Programs (P40 OD010440).
# To determine the impact of selected compounds on age related decline in brain health, the lifespan of the worms was first measured. The L1 worms were cultured in 96-well plates on S-complete media containing E. coli OP50 and antibiotics (about 10-15 animals per well). […] The 0.6 mM Fluorodeoxyuridine (FUDR; 30 μl) was added to each well after 3 days and animals were monitored every other day for viability. The CL4176 and CL2006 worms were grown at 16° C. and N2 worms were grown at 20° C.
# [3] = test system: C. elegans overexpressing human Aβ; assay: Aβ accumulation in C. elegans (thioflavin S staining, western blot); type: in vivo; conditions: CL2006 worms overexpressing human Aβ, vs DMSO controls
# Experimental: as §1
# Then, the worm bodies were permeabilized in 1% Triton X-100, 125 mM Tris (pH 7.4), and 5% fresh β-mercaptoethanol. […] A total of 20 worms were counted from each group.
# SK-N-SH cells [4] = assay: Lysosome activity in SK-N-SH cells; type: cell-based, human; conditions: 10 μM, vs controls
# Experimental: Bafilomycin was used as an inhibitor of cellular autophagy/lysosomal activity. The lysosomal activity was assayed using the Enz@ lysozyme assay kit (E-22013, Molecular Probes) and the fluorescence was measured in a fluorescence microplate reader using excitation and emission wavelengths of 494 nm and 518 nm, respectively (Biotek Instruments, VT, USA).
smiles,measurement,setting,value
CC12CCC(C1)C(C)(C)C2O (stereo not shown) [Fenchol],"cAMP upon Forskolin-stimulation, ascending order",FFAR2 signaling,Fenchol<Carvamenthenol<α-Terpineol<Carene<Pentanone<Octopamine<Camphene
same,decrease in cAMP upon Forskolin-stimulation,FFAR2 signaling,highest decrease
same,protection in cell viability with FFAR2 inhibitor,"SK-N-SH cells [1]; Fenchol together with FFAR2 inhibitor, Aβ",no significant protection
same,Aβ-induced neuronal cell death,SK-N-SH cells [1]; vs DMSO controls,significantly reduced
same,Aβ-accumulation,SK-N-SH cells [2],significantly reduced
same,survival/lifespan,C. elegans; CL2006 worms overexpressing human Aβ,significantly increased
same,survival/lifespan,C. elegans; CL4176 worms overexpressing human Aβ,significantly increased
same,lifespan,C. elegans; wild-type N2 worms,no significant impacts
same,Aβ accumulation,[3],significantly reduced
same,lysosomal activity,SK-N-SH cells [4],significantly increased
